According to US20220017833A1, “Methods and Compositions for Scavenging Sulfides from Hydrocarbon Fluids and Aqueous Streams” (Nexgen Oilfield Chemicals, LLC, priority 2019, published 2022):

Columns and labels:
[1] = Long Reaction Time Capacity Test; settings: 20 g test
Excerpt: Referring now to FIG. 1, therein is schematically depicted a sulfide scavenger testing system 100 comprising a gas source 2, a flow regulator 4, gas treatment vessel 6, and a sulfide measurement device 8. In one testing embodiment, gas (not shown) is flowed from gas source 2 via gas feed piping 10 into flow regulator 4, which regulates gas flow to gas treatment vessel 6 via regulated gas feed piping 12. The regulated gas flows into gas treatment vessel 6 via a bottom inlet 14 thereof, where it comes into contact with a volume of liquid 16 comprising a sulfide scavenger system (not separately labeled). The gas, having been treated by the liquid, flows out of a top end 18 of gas treatment vessel 6 and flows into sulfide measurement device 8 via treated gas outlet piping 20.
In one embodiment, the gas contained in gas source 2 consists substantially of about 15% H2S, and about 3% CO2, with the remainder being Methane. In one embodiment, gas flow from the flow regulator 4 is controlled such that the gas is flowed into the gas treatment vessel 6 at a flow rate of 100 mL/min. up to 500 mL/min. In one embodiment, a gas sparging device, such as a fine pore frit (not shown), is utilized to better distribute the gas into the scavenger liquid. In one embodiment, the gas treatment vessel 6 contains about 20 g of a liquid H2S scavenger, such as one or more diaminols/diaminacetals in a chemical system as described above. In one aspect, to the extent possible, H2S and/or CO2 are scavenged from the gas by the scavenger and the treated (“sweet”) gas exits top end 18 of treatment vessel 6. In one embodiment, sulfide measurement device 8 monitors the concentration of H2S leaving treatment vessel 6. in the gas phase. In other embodiments (not shown), a CO2 measurement device may be similarly employed to monitor the concentration of CO2 leaving treatment vessel 6 in the gas phase.
In one embodiment, gas is flowed through sulfide scavenger testing system 100 until the outlet H2S concentration reaches a 4,000 ppm target, at which point the test is concluded. This relative time duration before the target is reached is used to compare H2S scavenger capacity given the kinetics of each sulfide scavenger system. The longer the duration, the better the capacity.
In this test, methane containing 15% H2S and 3% CO2 by weight is sparged via a fine pore frit (not shown) at 100 mL/min through a column of 20 g of scavenger solution (See FIG. 1). The fine bubbles produced rise slowly, providing plenty of time, plenty of surface area, and a short path through which the H2S must diffuse to the scavenger in the liquid 16. Detector 8 on the outlet line 20 is used to measure H2S concentration in the exiting gas. The times to first detection (FD), at a threshold of 15 ppm, and to complete breakthrough (BT), at the detector saturation of 4000 ppm (0.4%), are recorded. This test is designed to measure the effective scavenging capacity in applications with long contact times.
Note that the true total capacity of a scavenger with infinite time to react is simply equal to the stoichiometry of the reaction—the moles of H2S consumable per mole of scavenging molecule, which can be calculated. This Long Reaction Time Capacity measurement falls short of that ultimate stoichiometric capacity and so is still reaction rate dependent, just less so than the Short Reaction Time Capacity Test.

[2] = Storage Capacity Loss Test; assay type: physicochemical; settings: for Min to BT / Min to FD: Short Reaction Time Capacity Test, diaminol in water + 10.00 g MeOH, 20 g test
Method: This test compares the scavenging capacity after 24 hours of storage of the scavenger system at room temperature to that after 72 hours of storage thereof at room temperature. In one embodiment, a sample of the scavenger system is made fresh and split in two portions. The Short Reaction Time Capacity Test is run on one portion after standing 24 hours on the bench at room temperature. Then the same test is run on the other portion after standing 72 hours on the bench at room temperature. The two measured capacities are compared to see if the product degrades in storage. Importantly, some scavengers lose activity with time due to secondary reactions and re-equilibrations that degrade their active form.
Table 5 compares different alkyl substituents on glyoxy alkyl diaminols. These compounds were prepared by reacting one mole of glyoxal, as a 40% aqueous solution, with 2.1 moles of various primary amines in a sufficient amount of MeOH to keep the product from separating into an aqueous layer and a non-aqueous layer. For each amine substituent: methyl (Me), ethyl (Et), normal-propyl (n-Pr), iso-propyl (i-Pr), and iso-propanol [1-propan-2-ol] (i-PrOH), the presence or absence of alpha branching on that substituent is noted. The weight ratios of the diaminols, water, and MeOH, are listed, along with their equivalent weights (Eq. Wt.) and the total equivalents per 20 g test (Eq/test). To measure the product stability, the Storage Capacity Loss between 24 and 72 hours was determined. As described earlier, a fresh sample of the scavenger system is split in two portions. The Short Reaction Time Capacity Test is run on one portion after standing 24 hours on the bench at room temperature. Then the same test is run on the other portion after standing 72 hours on the bench at room temperature. Both the 24-hr and 72-hr capacities (Min to FD and BT) and molar capacities (Min/Eq FD and BT) are listed in the table with the percent capacity loss for each substituent calculated below it. […] The others lost 34% to 77% of their scavenging capacity in 48 hours (72-24), presumably due to secondary reactions and re-equilibrations that degraded their active form. In this system employing only methanol, all of these compositions failed both the Hot Spray Fouling Test and the Spent Water Flowability Test. Two of them, the iso-propylamine [propan-2-amine] and the iso-propanolamine [1-aminopropan-2-ol] passed the Spent Solids Fouling Test.

[3] = Spent Solids Fouling Test; assay type: physicochemical; settings: Table 5, glyoxy alkyl diaminol in water and MeOH only
Excerpt: In every application, the active component of the scavenger system reacts with H2S to from a reaction product. Once all the active scavenger has been so reacted, it is spent. […] Thioethers are much less water soluble than amines, so the reaction products are often insoluble. Thioether bridges also connect spent scavenger molecules to each other, thereby forming insoluble polymeric solids. These solids accumulate and foul (interfere with the function) of the vessel, line, or equipment to which the scavenger is being fed. […] If any solids or insoluble viscous liquids are observed poorly dispersed in the spent scavenger system or clinging to the sides of the vessel, the scavenging system employed in that Long Reaction Time Capacity Test fails this test. A homogeneous, single-phase solution or thin layer of readily flowable non-sticking liquid constitutes a pass.

[4] = operational testing in a natural gas production facility
Method: In operational testing in a natural gas production facility, both an anhydrous glyoxy isopropyl aminacetal (GIDAc) scavenging system and an aqueous glyoxy isopropyl diaminol (GIDA) scavenging system were tested in comparison with an industry standard triazine-based scavenger.

[5] = Eq/test Triazine 0.068, GIDAc 0.185, GIDA 0.076
[6] = Triazine 7.50 g + 12.50 g water, GIDAc 13.00 g as GID + 7.00 g MeOH, GIDA 6.68 g as GID, 3.32 g water, 8.00 g MeOH, 2.00 g BuOH
[7] = 72-24 Hrs storage at room temperature
[8] = Sample Age 24 Hrs at room temperature
[9] = Sample Age 72 Hrs at room temperature

With `CC(C)NC(O)C(O)NC(C)C` (stereo not shown) [GIDA, 1,2-bis[(propan-2-yl)amino]ethane-1,2-diol] the “Min/Eq BT” value [1, 5] was 805 Min/Eq, the “Min/Eq FD” value [1, 5] was 607 Min/Eq and the “Min to BT” value [1, 6] was 61 min. The “Min to FD” value [1, 6] was 46 min, the “BT Capacity Loss” value [2, 7] was −2% and the “FD Capacity Loss” value [2, 7] was 0%. For the same molecule, the “Min/Eq BT” value ([2]; Sample Age 24 Hrs) was 528 Min/Eq, the “Min/Eq FD” value ([2]; Sample Age 24 Hrs) was 409 Min/Eq and the “Min to BT” value [2, 8] was 40 min. For the same molecule, the “Min to FD” value [2, 8] was 31 min, the “Min/Eq BT” value ([2]; Sample Age 72 Hrs) was 541 Min/Eq and the “Min/Eq FD” value ([2]; Sample Age 72 Hrs) was 409 Min/Eq. For the same molecule, the “Min to BT” value [2, 9] was 41 min, the “Min to FD” value [2, 9] was 31 min and the “loss of scavenging capacity (degradation) in storage” value ([2]; in 48 hours (72-24), room temperature) was “no degradation”. For the same molecule, the “Spent Solids Fouling” value ([3]; listed as i-Pr) was “Pass”, the “Spent Solids Fouling” value ([3]; listed as iso-propylamine) was “passed” and the “H2S removal on a pound-per-pound basis” value ([4]; compared with the triazine-based scavenging system) was “significantly higher H2S removal”. For the same molecule, the “employable in scavenging H2S from natural gas” value ([4]; natural gas production facility) was “employable”.
